The record followed here is paper PMC9369712 (2022).

Some results are limits rather than exact numbers.

Test [1] deals with TP3-T6 (DNA, G4) TGGGGTCCGAGGCGGGGCTTGGG
The test is described as follows: 1H NMR titration (imino protons). Particulars: 70 mM KCl, 20 mM KH2PO4, pH 7.0, 25 °C, 90% H2O.

For test [2] the test system is unchanged. The test is described as follows: CD melting at 265 nm. Particulars: 70 mM KCl; 20 mM phosphate pH 7.1; 2 µM DNA, 6 µM ligand; no stabilization.
The test system is the same in test [3]. The test is described as follows: CD melting. Particulars: 70 mM KCl; 20 mM phosphate pH 7.1; 2 µM DNA, DNA:ligand 1:3.

Turning to `CN(C)CCNC(=O)c1cccn2c(=O)c3cc4ccccc4cc3nc12`, the binding entry in test [1] (3'-end tetrad) is given as “yes”.
Consider `CN(C)CCNC(=O)c1cccn2c(=O)c3sc4ccccc4c3nc12`, for which the binding entry in test [2] and in test [1] (3'-end tetrad) was “yes” throughout.
As to `Cc1cc2c3c([n+](C)c4ccc(F)cc4c3c1)-c1cc(F)ccc1N2C`, in test [1] (5'-terminal tetrad signals broadened), the binding result is on record as “yes”.
Regarding `Cc1cnc(CNC(=O)c2c(=O)c3ccc(N4CCCN(C)CC4)nc3n3c2sc2ccccc23)cn1`, the binding result in test [1] (3'-end tetrad) is recorded as “yes”.
What is called ΔTm is the shift of the melting midpoint relative to a reference. Take `NCCOc1cc(C(=O)Nc2cc(OCCN)c3ccccc3n2)nc(C(=O)Nc2cc(OCCN)c3ccccc3n2)c1`: in test [3], the ΔTm is above 30 °C.
